Laboratory results: patent publication US9339469B2, “R(+)-N-methyl-propargyl-aminoindan” (Teva Pharmaceutical Industries, Ltd., priority 2011, dated 2016)

Legend:
[1] = melt phase, 78 and 90° C. for 24, 72 or 137 hrs
Procedure: Samples intended to degrade under en inert atmosphere were flushed with nitrogen for 5 minutes before closing with a stepper.
The samples were introduced into a pre-heated oven and held at a constant temperature of 78 and 90° C. for 24, 72 or 137 hrs. After completion of the treatment the samples were refrigerated and analyzed.

[2] = in vivo; cited from earlier work

In the case of C#CCN[C@@H]1CCc2ccccc21 [rasagiline, R(+)-N-propargyl-1-aminoindan], the “formation of R(+)-N-methyl-PAI (summary of Table 1)” value [1] is listed as “no R(+)-N-methyl-PAI was formed” and the absolute bioavailability [2] is listed as “about 36%”.
